Assay results from EP0979827A1, “Peptides having tachykinin antagonist activity, a process for preparation thereof and pharmaceutical compositions comprising the same” (Boehringer Ingelheim Pharma KG, priority 1992, dated 1994).

Molecular target: T1, NK1-Rezeptor (Substanz P-Rezeptor) (Homo sapiens, UniProt P25103)
T1 construct: expressed in transfected cells; host or cells: human lymphoblastoma cells IM-9
Experiment: Receptor affinity for the NK1 receptor: displacement of 125I-labelled substance P on IM-9 cells
Assay type: binding
Conditions: humane Lymphoblastoma-Zellen (IM-9) mit klonierten NK1-Rezeptoren; Verdrängung von 125J-markierter Substanz P; read-out: IC50-Werte
Method: Die Rezeptoraffinität zum NK1-Rezeptor (Substanz P-Rezeptor) wurde an humanen Lymphoblastoma-Zellen (IM-9) mit klonierten NK1-Rezeptoren bestimmt, wobei die Verdrängung von ^125J-markierter Substanz P gemessen wird. Die so erhaltenen IC50-Werte betragen: Verb. A : 60 nM Verb. B : 21 nM Verb. C : 90 nM Verb. D : 45 nM [drawing 26]

T1 sequence (P25103 whole entry): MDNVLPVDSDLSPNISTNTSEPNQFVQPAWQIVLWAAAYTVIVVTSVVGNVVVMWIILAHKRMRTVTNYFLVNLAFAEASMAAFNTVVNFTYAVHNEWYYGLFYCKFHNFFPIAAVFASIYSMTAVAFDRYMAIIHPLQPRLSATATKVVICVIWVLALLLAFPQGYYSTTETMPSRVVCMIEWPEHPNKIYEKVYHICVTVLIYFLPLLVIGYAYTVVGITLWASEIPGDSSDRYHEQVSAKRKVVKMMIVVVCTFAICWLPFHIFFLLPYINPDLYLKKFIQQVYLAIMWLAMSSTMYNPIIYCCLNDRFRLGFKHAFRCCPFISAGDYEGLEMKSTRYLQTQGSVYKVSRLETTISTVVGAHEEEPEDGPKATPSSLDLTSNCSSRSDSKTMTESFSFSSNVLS

SMILES	IC50
CN(Cc1ccccc1)C(=O)[C@H](Cn1cccc1)NC(=O)[C@@H]1C[C@@H](O)CN1C(=O)c1c[nH]c2ccccc12 [Verb. A]	60 nM
CN(Cc1ccccc1)C(=O)[C@H](COCc1ccccc1)NC(=O)[C@@H]1C[C@@H](O)CN1C(=O)c1c[nH]c2ccccc12 [Verb. B]	21 nM
CN(Cc1ccccc1)C(=O)[C@H](CC1CCCCC1)NC(=O)[C@@H]1C[C@@H](O)CN1C(=O)c1c[nH]c2ccccc12 [Verb. D]	45 nM
